Laboratory results: PMC3157396, “Molecular Basis for the Recognition of Adenomatous Polyposis Coli by the Discs Large 1 Protein” (PLoS ONE, 2011)
Entries after “also recorded” stand apart in the source; their conditions may differ.

Experiments:
[1] = tested on: PDZ1 and PDZ2 domains of PSD-95; settings: cited from earlier work
From the text: The 3D structures of the three PDZ domains of DLG1 have been determined in the free forms [13]–[15]. They share very similar structures, and the ligand binding pockets are also conserved. […] The residues in the β2/β3 loop ...

[2] = tested on: P245Q mutation in PDZ1 of DLG1; settings: cited from earlier work
From the text: This residue difference might account for the higher affinity between PDZ2 and APC.

[3] = target: T1, PDZ1 domain of DLG1 (residues 220–310) (Homo sapiens, UniProt Q12959); test: GST pull-down assay, PDZ1; type: binding; settings: GST-APC peptide immobilized, 4°C, 25 mM Tris-HCl pH 8.0, 150 mM NaCl, 2 mM DTT, SDS-PAGE, Coomassie Blue
T1 construct: The cDNAs encoding PDZ1 (residues 220–310); His tag (N); made in house; host or cells: E. coli BL21 (DE3)
From the text: (§1) The cDNAs encoding PDZ1 (residues 220–310), PDZ2 (residues 315–410), PDZ3 (462–552), and PDZ1-PDZ2 (residues 220–410) domains of human DLG1 were cloned into pET28a (Novagen)-derived vectors and over-expressed as N-terminal His-tagged proteins. The C-terminal 11 residues of human APC (residues 2833–2843, APC-C11, with sequence […]), the C-terminal 4 residues of human APC (residues 2840–2843, APC-C4, sequence VTSV), and residues 2833–2842 of APC (APC-C10, sequence […]) were cloned into the pGEX4T1 (GE Healthcare) vector to be expressed as N-terminal GST-tagged recombinant proteins.
(§2) All proteins except PDZ1-PDZ2 were over-expressed in E. coli strain BL21 (DE3), and PDZ1-PDZ2 was over-expressed in E. coli strain BL21 (RIL). Cells were cultured at 37°C in LB medium and incubated for 20 hours at 18°C with 0.5 mM isopropyl β-D-1-thiogalactopyranoside (IPTG) on reaching OD600 = 0.6. Cells were harvested by centrifugation and resuspended in the binding buffer (Ni^2+-NTA column binding buffer: 25 mM Tris-HCl, pH 8.0, 300 mM NaCl, and 20 mM imidazole; GST column binding buffer: 25 mM Tris-HCl, pH 8.0, 150 mM NaCl, and 2 mM DTT). The cells were lysed by sonication, followed by centrifugation. Supernatants of the cells lysates were purified by Ni^2+-NTA affinity chromatography (Qiagen) or GST affinity chromatography (GE Healthcare). PDZ1, PDZ2, PDZ3, and PDZ1-PDZ2 proteins were then purified by Superdex 200 gel filtration chromatography equilibrated with a buffer containing 20 mM Tris-HCl, pH 8.0, 100 mM NaCl, and 2 mM DTT.
(§3) GST pull-down assays between wild-type (WT) or mutant APC peptides and WT or mutant PDZ domain proteins were performed according to standard procedures. […] The bound proteins were eluted with the GST column elution buffer (50 mM Tris-HCl, pH 8.0, 150 mM NaCl, and 7 mM glutathione), and then analyzed by SDS-PAGE and Coomassie Blue staining.

[4] = target: T2, PDZ2 domain of DLG1 (residues 315–410) (Homo sapiens, UniProt Q12959); test: GST pull-down assay, PDZ2; type: binding; settings: for binding in GST pull-down (in words): PDZ2 (WT), GST-APC peptide immobilized, 4°C, 25 mM Tris-HCl pH 8.0, 150 mM NaCl, 2 mM DTT, SDS-PAGE, Coomassie Blue
T2 construct: PDZ2 (residues 315–410); His tag (N); made in house; host or cells: E. coli BL21 (DE3)
From the text: as §1, §2, §3

PDZ2 Q340P (DLG1) [5] = target: T3, PDZ2 Q340P (DLG1) (Homo sapiens, UniProt Q12959, Q340P); test: ITC, PDZ2 Q340P titrated into GST-APC-C11; type: binding; settings: 25°C, 50 mM HEPES pH 7.5, 100 mM NaCl
T3 construct: PDZ2 (residues 315–410); His tag (N); made in house; host or cells: E. coli BL21 (DE3)
T3 sequence (Q12959 315-410 Q340P): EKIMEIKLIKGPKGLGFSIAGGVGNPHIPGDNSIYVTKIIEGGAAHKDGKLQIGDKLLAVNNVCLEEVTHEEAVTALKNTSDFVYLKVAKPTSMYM
From the text: as §1
(§4) Isothermal titration calorimetry (ITC) experiments were performed using an ITC200 system (GE Healthcare) at 25°C. The buffer contained 50 mM HEPES, pH 7.5, and 100 mM NaCl. Proteins were centrifuged and degassed before the experiment. Typically, a WT or mutant DLG1 PDZ domain protein (400 µM) was injected 20 times in 2 µl aliquots into a 300 µl sample cell containing GST-tagged APC-C11 or APC-C4 protein (40 µM). Data were fit with a nonlinear least-square routine using a single site binding model with Origin for ITC version 7.0 (MicroCal), varying the stoichiometry (n), the enthalpy of the reaction (ΔH), and the association constant (K a).

PDZ3 domain of DLG1 = target: T4, PDZ3 domain of DLG1 (Homo sapiens, UniProt Q12959); test: ITC, PDZ3 titrated into GST-APC-C11; type: binding; settings: 25°C, 50 mM HEPES pH 7.5, 100 mM NaCl
T4 construct: PDZ3 (462–552); His tag (N); made in house; host or cells: E. coli BL21 (DE3)
From the text: as §1
as §2, with “PDZ1, PDZ2, PDZ3, and PDZ1-PDZ2 proteins were then purified by Superdex 200 gel filtration chromatography equilibrated with a buffer containing 20 mM Tris-HCl, pH 8.0, 100 mM NaCl, and 2 mM DTT.” left out

PDZ2 Δ339–346 (DLG1) [6] = target: T5, PDZ2 Δ339–346 (DLG1) (Homo sapiens, UniProt Q12959, DEL339-346); test: GST pull-down assay, PDZ2 Δ339–346; type: binding; settings: PDZ2 Δ339–346 vs WT PDZ2; GST-APC-C11 immobilized, 4°C; 25 mM Tris-HCl pH 8.0, 150 mM NaCl, 2 mM DTT
T5 construct: PDZ2 (residues 315–410); His tag (N); made in house; host or cells: E. coli BL21 (DE3)
T5 sequence (Q12959 with tags, fused parts or gaps DEL339-346): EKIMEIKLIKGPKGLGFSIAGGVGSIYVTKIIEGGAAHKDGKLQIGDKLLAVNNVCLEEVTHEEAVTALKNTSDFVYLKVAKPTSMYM
From the text: (§5) The 3D structures of the three PDZ domains of DLG1 have been determined in the free forms [13]–[15]. They share very similar structures, and the ligand binding pockets are also conserved. […] The residues in the β2/β3 loops of PDZ domains in other proteins have also been implicated in determining their target ligand binding affinities, [18]. In order to know whether the β2/β3 loop also plays an important role in the interaction between APC and DLG1, we created a similar mutant of PDZ2 deleting residues 339–346.
as §1
GST pull-down assays between wild-type (WT) or mutant APC peptides and WT or mutant PDZ domain proteins were performed according to standard procedures. […]

[7] = tested on: PDZ1-PDZ2 of DLG1 (residues 220–410); test: GST pull-down assay, PDZ1-PDZ2; type: binding, human; settings: GST-APC peptide immobilized, 4°C, 25 mM Tris-HCl pH 8.0, 150 mM NaCl, 2 mM DTT, SDS-PAGE, Coomassie Blue
From the text: as §1
All proteins except PDZ1-PDZ2 were over-expressed in E. coli strain BL21 (DE3), and PDZ1-PDZ2 was over-expressed in E. coli strain BL21 (RIL). Cells were cultured at 37°C in LB medium and incubated for 20 hours at 18°C with 0.5 mM isopropyl β-D-1-thiogalactopyranoside (IPTG) on reaching OD600 = 0.6. […]
as §3

PDZ2 Δ339–346 (DLG1) [8] = target: T5, PDZ2 Δ339–346 (DLG1); test: ITC, PDZ2 Δ339–346 titrated into GST-APC-C11; type: binding; settings: 25°C, 50 mM HEPES pH 7.5, 100 mM NaCl
From the text: as §5, §1
Isothermal titration calorimetry (ITC) experiments were performed using an ITC200 system (GE Healthcare) at 25°C. The buffer contained 50 mM HEPES, pH 7.5, and 100 mM NaCl. Proteins were centrifuged and degassed before the experiment. […]

[9] = target: T1, PDZ1 domain of DLG1 (residues 220–310); test: ITC, PDZ1 titrated into GST-tagged APC peptides; type: binding; settings: 25°C, 50 mM HEPES pH 7.5, 100 mM NaCl
From the text: as §1, §2, §4

PDZ2 Q340P (DLG1) [10] = target: T3, PDZ2 Q340P (DLG1); test: GST pull-down assay, PDZ2 Q340P; type: binding; settings: PDZ2 Q340P vs WT PDZ2; GST-APC-C11 immobilized, 4°C; 25 mM Tris-HCl pH 8.0, 150 mM NaCl, 2 mM DTT
From the text: as §1, §3

[11] = target: T2, PDZ2 domain of DLG1 (residues 315–410); test: ITC, PDZ2 titrated into GST-tagged APC peptides; type: binding; settings: 25°C, 50 mM HEPES pH 7.5, 100 mM NaCl
From the text: as §1, §2, §4

T2 sequence (Q12959 315-410): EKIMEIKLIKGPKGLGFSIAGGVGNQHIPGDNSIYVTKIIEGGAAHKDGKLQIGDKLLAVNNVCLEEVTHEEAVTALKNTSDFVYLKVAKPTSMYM
T1 sequence (Q12959 220-310): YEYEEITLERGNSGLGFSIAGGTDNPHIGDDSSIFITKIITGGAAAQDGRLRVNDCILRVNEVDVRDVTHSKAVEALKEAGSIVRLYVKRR
T4 sequence (Q12959 462-552): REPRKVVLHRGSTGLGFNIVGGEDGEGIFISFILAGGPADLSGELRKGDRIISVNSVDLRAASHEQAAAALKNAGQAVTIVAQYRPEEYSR

Substance: NR2B: NR2B subunit of NMDA receptors
- change of binding affinity on deletion of six residues from the β2/β3 loops (in words) [1]: decreases the binding affinity
- fold increase in binding affinity for NR2B [2]: 2 fold

Substance: RHSGSYLVTS [APC-C10]
- binding in GST pull-down (in words) [3]: no interaction could be observed
- binding in GST pull-down (in words) [4]: no interaction could be observed

Substance: RHSGSYLVTSV [APC-C11]
- DLG/APC ratio (PDZ2 Q340P (DLG1) [5]; 400 µM PDZ2 Q340P into 40 µM GST-APC-C11, single site binding model): 1.04±0.03
- TΔS (PDZ2 Q340P (DLG1) [5]; PDZ2 Q340P into GST-APC-C11): 0.0793 kcal/mol
- ΔH (PDZ2 Q340P (DLG1) [5]; PDZ2 Q340P into GST-APC-C11, negative = exothermic): -6.76 ± 0.27 kcal/mol
- interaction / heat of reaction by ITC (in words) (PDZ3 domain of DLG1): no detectable interaction was observed
- binding in GST pull-down (in words) (PDZ2 Δ339–346 (DLG1) [6]): significantly decreases the interaction; also recorded: dramatically decreased the interaction
- binding in GST pull-down (in words) [7]: bound most strongly
- binding in GST pull-down (in words) [3]: somewhat weaker, but detectable binding
- interaction / heat of reaction by ITC (in words) (PDZ2 Δ339–346 (DLG1) [8]): no detectable heat of reaction
- interaction / heat of reaction by ITC (in words) (PDZ2 Δ339–346 (DLG1) [8]; listed as GST-APC-C11): no detectable interaction was observed
- DLG/APC ratio ([9]; 400 µM PDZ1 into 40 µM GST-tagged APC peptide, single site binding model): 0.918±0.127
- TΔS ([9]; PDZ1 into GST-tagged APC peptide): 2.44 kcal/mol
- ΔH ([9]; PDZ1 into GST-tagged APC peptide, negative = exothermic): -4.02 ± 0.82 kcal/mol
- binding in GST pull-down (in words) (PDZ2 Q340P (DLG1) [10]): greatly diminished the association; also recorded: substantially weaker interaction
- DLG/APC ratio ([11]; 400 µM PDZ2 into 40 µM GST-tagged APC peptide, single site binding model): 0.916±0.018
- TΔS ([11]; PDZ2 into GST-tagged APC peptide): 1.07 kcal/mol
- ΔH ([11]; PDZ2 into GST-tagged APC peptide, negative = exothermic): -7.09 ± 0.19 kcal/mol
- binding in GST pull-down (in words) [4]: stronger than that between PDZ1 and APC-C11
- binding in GST pull-down (in words) ([4]; listed as GST-APC-C11): bound most strongly
- binding in GST pull-down in crystallization-like buffer (in words) ([4]; PDZ2, buffer similar to the condition in which PDZ2/APC-C11 crystallized, data not shown): weaker than that between PDZ1 and APC-C11

Substance: VTSV [APC-C4]
- binding in GST pull-down (in words) [7]: significantly weaker compared to GST-APC-C11
- binding in GST pull-down (in words) [3]: significantly weaker compared to GST-APC-C11
- interaction / heat of reaction by ITC (in words) ([9]; PDZ1, listed as GST-APC-C4): no detectable heat of reaction; also recorded: no detectable interaction was observed
- interaction / heat of reaction by ITC (in words) ([11]; PDZ2, listed as GST-APC-C4): no detectable heat of reaction; also recorded: no detectable interaction was observed
- binding in GST pull-down (in words) [4]: significantly weaker compared to GST-APC-C11
